From patent publication US9751874B2, “Hydroxy containing FXR (NR1H4) modulating compounds” (Gilead Sciences, Inc., priority 2014, dated 2017)

How the values were obtained:
[1] = target: T1, human FXR alpha ligand binding domain (Homo sapiens, UniProt Q96RI1); assay: FRET activity assay (ligand mediated cofactor peptide interaction, LANCE); assay type: biochemical; details: GST-FXR-LBD / biotinylated SRC-1 peptide (676-700), read-out: F EC50
T1 construct: made in house; host or cells: E. coli BL21(DE3), vector pDEST15
T1 sequence (Q96RI1 187-472 isoform Q96RI1-2): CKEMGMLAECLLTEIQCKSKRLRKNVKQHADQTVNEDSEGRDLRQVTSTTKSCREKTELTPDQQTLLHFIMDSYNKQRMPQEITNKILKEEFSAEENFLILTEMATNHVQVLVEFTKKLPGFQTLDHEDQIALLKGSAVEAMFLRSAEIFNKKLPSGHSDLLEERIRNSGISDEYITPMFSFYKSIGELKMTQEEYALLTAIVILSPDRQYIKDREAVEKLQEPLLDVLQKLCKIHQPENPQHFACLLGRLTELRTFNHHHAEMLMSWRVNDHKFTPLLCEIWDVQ
Method: Determination of a ligand mediated cofactor peptide interaction to quantify ligand binding to the nuclear receptor FXR was performed as follows: Preparation of human FXR alpha ligand binding domain: The human FXRalpha LBD was expressed in E. coli strain BL21(DE3) as an N-terminally GST tagged fusion protein. The DNA encoding the FXR ligand binding domain was cloned into vector pDEST15 (Invitrogen). Expression was under control of an IPTG inducible T7 promoter. The amino acid boundaries of the ligand binding domain were amino acids 187-472 of Database entry NM_005123 (RefSeq). Expression and purification of the FXR-LBD: An overnight preculture of a transformed E. coli strain was diluted 1:20 in LB-Ampicillin medium and grown at 30° C. to an optical density of OD600=0.4-0.6. Gene expression was then induced by addition of 0.5 mM IPTG. Cells were incubated an additional 6 h at 30° C., 180 rpm. Cells were collected by centrifugation (7000×g, 7 min, rt). Per liter of original cell culture, cells were resuspended in 10 mL lysis buffer (50 mM Glucose, 50 mM Tris pH 7.9, 1 mM EDTA and 4 mg/mL lysozyme) and left on ice for 30 min. Cells were then subjected to sonication and cell debris removed via centrifugation (22000×g, 30 min, 4° C.). Per 10 mL of supernatant 0.5 mL prewashed Glutathione 4B sepharose slurry (Qiagen) was added and the suspension kept slowly rotating for 1 h at 4° C. Glutathione 4B sepharose beads were pelleted by centrifugation (2000×g, 15 sec, 4° C.) and washed twice in wash buffer (25 mM Tris, 50 mM KCl, 4 mM MgCl2 and 1M NaCl). The pellet was resuspended in 3 mL elution buffer per liter of original culture (elution buffer: 20 mM Tris, 60 mM KCl, 5 mM MgCl2 and 80 mM glutathione added immediately prior to use as powder). The suspension was left rotating for 15 min at 4° C., the beads pelleted and eluted again with half the volume of elution buffer than the first time. The eluates were pooled and dialysed overnight in 20 mM Hepes buffer (pH 7.5) containing 60 mM KCl, 5 mM MgCl2 as well as 1 mM dithiothreitol and 10% (v/v) glycerol. The protein was analysed by SDS-Page.
The method measures the ability of putative ligands to modulate the interaction between the purified bacterial expressed FXR ligand binding domain (LBD) and a synthetic biotinylated peptide based on residues 676-700 of SRC-1 (LCD2, 676-700). The sequence of the peptide used was B—[…]—COOH where the N-terminus was biotinylated (B). The ligand binding domain (LBD) of FXR was expressed as fusion protein with GST in BL-21 cells using the vector pDEST15. Cells were lysed by sonication, and the fusion proteins purified over glutathione sepharose (Pharmacia) according to the manufacturers instructions. For screening of compounds for their influence on the FXR-peptide interaction, the Perkin Elmer LANCE technology was applied. This method relies on the binding dependent energy transfer from a donor to an acceptor fluorophor attached to the binding partner of interest. For ease of handling and reduction of background from compound fluorescence LANCE technology makes use of generic fluorophore labels and time resolved detection Assays were done in a final volume of 25 μL in a 384 well plate, in a Tris-based buffer (20 mM Tris-HCl pH 7.5; 60 mM KCl, 5 mM MgCl2; 35 ng/μL BSA), containing 20-60 ng/well recombinantly expressed FXR-LBD fused to GST, 200-600 nM N-terminally biotinylated peptide, representing SRC1 aminoacids 676-700, 200 ng/well Streptavidin-xIAPC conjugate (Prozyme) and 6-10 ng/well Eu W1024-antiGST (Perkin Elmer). DMSO content of the samples was kept at 1%. After generation of the assay mix and diluting the potentially FXR modulating ligands, the assay was equilibrated for 1 h in the dark at rt in FIA-plates black 384 well (Greiner). The LANCE signal was detected by a Perkin Elmer VICTOR2VTM Multilabel Counter. The results were visualized by plotting the ratio between the emitted light at 665 and 615 nm. […]

[2] = target: T2, FXR ligand binding domain (Homo sapiens, UniProt Q96RI1); assay: Mammalian One Hybrid (M1H) assay, Gal4 promoter driven transactivation in HEK293 cells; assay type: cell-based; details: Gal4-FXR-LBD luciferase reporter, 16 h
T2 construct: expressed in transfected cells; host or cells: HEK293 cells, transiently transfected with pCMV-BD-FXR-LBD, pFR-Luc and pRL-CMV
T2 sequence (Q96RI1 187-472 isoform Q96RI1-2): T1 sequence (Q96RI1 187-472 isoform Q96RI1-2)
Method: Mammalian One Hybrid (M1H) Assay
Determination of a ligand mediated Gal4 promoter driven transactivation to quantify ligand binding mediated activation of FXR was performed as follows: The cDNA part encoding the FXR ligand binding domain was cloned into vector pCMV-BD (Stratagene) as a fusion to the yeast GAL4 DNA binding domain under the control of the CMV promoter. The amino acid boundaries of the ligand binding domain were amino acids 187-472 of Database entry NM_005123 (RefSeq). The plasmid pFR-Luc (Stratagene) was used as the reporter plasmid, containing a synthetic promoter with five tandem repeats of the yeast GAL4 binding sites, driving the expression of the Photinus pyralis (American firefly) luciferase gene as the reporter gene. In order to improve experimental accuracy the plasmid pRL-CMV (Promega) was cotransfected. pRL-CMV contains the constitutive CMV promoter, controlling the expression of the Renilla reniformis luciferase. All Gal4 reporter gene assays were done in HEK293 cells (obtained from DSMZ, Braunschweig, Germany) grown in MEM with L-Glutamine and Earle's BSS supplemented with 10% fetal bovine serum, 0.1 mM nonessential amino acids, 1 mM sodium pyruvate, and 100 units Penicilin/[…] per mL at 37° C. in 5% CO2. Medium and supplements were obtained from Invitrogen. For the assay, […] cells were plated per well in 96 well plates in 100 μL per well MEM without Phenol Red and L-Glutamine and with Earle's BSS supplemented with 10% charcoal/dextran treated FBS (HyClone, South Logan, Utah), 0.1 mM nonessential amino acids, 2 mM glutamine, 1 mM sodium pyruvate, and 100 units Penicilin/[…] per mL, incubated at 37° C. in 5% CO2. The following day the cells were >90% confluence. Medium was removed and cells were transiently transfected using 20 μL per well of a OptiMEM—polyethylene-imine-based transfection-reagent (OptiMEM, Invitrogen; Polyethyleneimine, Aldrich Cat No. 40,827-7) including the three plasmids described above. MEM with the same composition as used for plating cells was added 2-4 h after addition of transfection mixture. Then compound stocks, prediluted in MEM were added (final vehicle concentration not exceeding 0.1%). Cells were incubated for additional 16 h before firefly and renilla luciferase activities were measured sequentially in the same cell extract using a Dual-Light-Luciferase-Assay system (Dyer et al., Anal. Biochem. 2000, 282, 158-161). All experiments were done in triplicates.

EC50 [1] [nM]	EC50 [2] [nM]	Compound
2200	> 3000	O=C(O)c1ccc2nc([C@]3(O)CC[C@@H](OCc4c(C5CCC(F)(F)CC5)noc4C4CC4)CC3)sc2c1 [Example 11-1, 2-((1s,4s)-4-((5-Cyclopropyl-3-(4,4-difluorocyclohexyl)isoxazol-4-yl)methoxy)-1-hydroxycyclohexyl)benzo[d]thiazole-6-carboxylic acid]
8600	> 3000	O=C(O)c1ccc2nc([C@]3(O)CC[C@H](OCc4c(C5CCC(F)(F)CC5)noc4C4CC4)CC3)sc2c1 [Example 11-2, 2-((1r,4r)-4-((5-Cyclopropyl-3-(4,4-difluorocyclohexyl)isoxazol-4-yl)methoxy)-1-hydroxycyclohexyl)benzo[d]thiazole-6-carboxylic acid]
1300	2100	O=C(O)c1ccc2nc([C@]3(O)CC[C@@H](OCc4c(C5CCC6(CC5)CC6)noc4C4CC4)CC3)sc2c1 [Example 11-3, 2-((1s,4s)-4-((5-Cyclopropyl-3-(spiro[2.5]octan-6-yl)isoxazol-4-yl)methoxy)-1-hydroxycyclohexyl)benzo[d]thiazole-6-carboxylic acid]
60	94	O=C(O)c1ccc([C@]2(O)CC[C@@H](OCc3c(-c4c(Cl)cccc4Cl)noc3C3CC3)CC2)c(F)c1 [Example 11-5, 4-((1s,4s)-4-((5-Cyclopropyl-3-(2,6-dichlorophenyl)isoxazol-4-yl)methoxy)-1-hydroxycyclohexyl)-3-fluorobenzoic acid]
40	51	O=C(O)c1ccnc([C@]2(O)CC[C@@H](OCc3c(-c4c(Cl)cccc4Cl)noc3C3CC3)CC2)c1 [Example 11-6, 2-((1s,4s)-4-((5-Cyclopropyl-3-(2,6-dichlorophenyl)isoxazol-4-yl)methoxy)-1-hydroxycyclohexyl)isonicotinic acid]
150	1300	O=C(O)c1cc(F)c2nc([C@]3(O)CC[C@@H](OCc4c(-c5ccccc5OC(F)F)noc4C4CC4)CC3)sc2c1 [Example 11-7, 2-((1s,4s)-4-((5-Cyclopropyl-3-(2-(difluoromethoxy)phenyl)isoxazol-4-yl)methoxy)-1-hydroxycyclohexyl)-4-fluorobenzo[d]thiazole-6-carboxylic acid]
8000	> 3000	O=C(O)Cc1ccc([C@]2(O)CC[C@@H](OCc3c(-c4c(Cl)cccc4Cl)noc3C3CC3)CC2)c(F)c1 [Example 11-8, 2-(4-((1s,4s)-4-((5-Cyclopropyl-3-(2,6-dichlorophenyl)isoxazol-4-yl)methoxy)-1-hydroxycyclohexyl)-3-fluorophenyl)acetic acid]
47	120	O=C(O)Cc1ccc(F)c([C@]2(O)CC[C@@H](OCc3c(-c4c(Cl)cccc4Cl)noc3C3CC3)CC2)c1 [Example 11-9, 2-(3-((1s,4s)-4-((5-Cyclopropyl-3-(2,6-dichlorophenyl)isoxazol-4-yl)methoxy)-1-hydroxycyclohexyl)-4-fluorophenyl)acetic acid]
250	1200	O=C(O)c1ccc2nc([C@]3(O)CC[C@@H](OCc4c(-c5ccccc5OC(F)F)noc4C4CC4)CC3)sc2c1 [Example 11-10, 2-((1s,4s)-4-((5-Cyclopropyl-3-(2-(difluoromethoxy)phenyl)isoxazol-4-yl)methoxy)-1-hydroxycyclohexyl)benzo[d]thiazole-6-carboxylic acid]
1000	1400	O=C(O)c1ccc2nc([C@]3(O)CC[C@@H](OCc4c(-c5ccccc5C5CC5)noc4C4CC4)CC3)sc2c1 [Example 11-11, 2-((1s,4s)-4-((5-Cyclopropyl-3-(2-cyclopropylphenyl)isoxazol-4-yl)methoxy)-1-hydroxycyclohexyl)benzo[d]thiazole-6-carboxylic acid]
360	430	Cc1cccc(C)c1-c1noc(C2CC2)c1CO[C@H]1CC[C@](O)(c2nc3ccc(C(=O)O)cc3s2)CC1 [Example 11-12, 2-((1s,4s)-4-((5-Cyclopropyl-3-(2,6-dimethylphenyl)isoxazol-4-yl)methoxy)-1-hydroxycyclohexyl)benzo[d]thiazole-6-carboxylic acid]
110	440	O=C(O)c1ccc2nc([C@]3(O)CC[C@@H](OCc4c(C5CC5)cnn4-c4c(Cl)cccc4Cl)CC3)sc2c1 [Example 11-13, 2-((1s,4s)-4-((4-Cyclopropyl-1-(2,6-dichlorophenyl)-1H-pyrazol-5-yl)methoxy)-1-hydroxycyclohexyl)benzo[d]thiazole-6-carboxylic acid]
230	270	O=C(O)c1ccc2nc([C@]3(O)CC[C@@H](OCc4c(-c5ccccc5OC(F)(F)F)noc4C4CC4)CC3)sc2c1 [Example 11-14, 2-((1s,4s)-4-((5-Cyclopropyl-3-(2-(trifluoromethoxy)phenyl)isoxazol-4-yl)methoxy)-1-hydroxycyclohexyl)benzo[d]thiazole-6-carboxylic acid]
